# Test results published in patent publication US7883707B2, “Induction of antigen specific immunnologic tolerance” (priority 2002, dated 2011).
# Key:
# [1] = test system: antibody titer to rh-alpha-glucosidase (rhGAA); assay: ELISA antibody titer to rhGAA in canines on weekly rhGAA infusions; format: in vivo, canine
# Description: Enzyme Infusions. […] Infusions were performed with 0.056 mg/kg/week recombinant human alpha glucosidase in a 50 mL infusion of saline and 10 mM NaPO4, pH 5.8. […] Animals were monitored for anaphylactic reaction.
# fibroblasts = assay: Half maximal uptake (Kuptake) of alpha-glucosidase into fibroblasts; format: cell-based
# [2] = control canine ST, no drug treatment
substance,measurement,setting,value
"rhGAA: recombinant human alpha-glucosidase, lysosomal enzyme being developed to treat Pompe disease",Antibody levels to rhGAA at the highest point,"[1]; 0.056 mg/kg/week iv rhGAA, weeks 1-12",> 150 OD Units
same,titer by week 4,[1]; [2],more than 100 OD units per microliter of serum
same,titer subsequently (after week 4),[1]; [2],100-200 units per microliter of serum
same,higher titer of control dog by week 5,[1]; control vs treated dog,100 fold
same,Kuptake (enzyme concentration at half maximal uptake),fibroblasts,about 1 nanomolar
